Measurements: patent US20070231256A1, “Compositions and methods for detecting and treating tumors containing acidic areas” (priority 2006, published 2007)
“And” between values parts separate entries of the source, which are not always exact repeats. Equal entries are not always repeated.

Assays:
[1] = Henderson-Hasselbalch calculation of percent in acid form; details: calculated; for Percent in Acid Form at pH 6.4: pH 6.4 (acidic areas of tumors); for Percent in Acid Form at pH 7.4: pH 7.4 (normal tissues)
Description: The interstitial space in normal tissues is generally at or very near pH 7.4, and in acidic areas of tumors a pH of around 6.4 is fairly typical or readily achievable by known methods. If one knows the pKa value of an acid substance (pKa is the pH at which the acid moiety is half ionized in aqueous solution) one can use the Henderson-Hasselbalch equation (pH=pKa+log [A−]/[HA]) to calculate what fraction of that substance will be in the acid form at any selected pH. […] It should be noted that for carboxyl-containing substances whose acid forms are water soluble, the pKa and pS values are quite similar.
In these calculations the Henderson-Hasselbalch equation was used to calculate the relative concentration of salt and acid forms at a given pH for a substance having acid moieties with a specified pKa or pS value. Then a binomial expansion was used to calculate the concentration of the all-acid form for an onco tool containing 2 or 3 pH-switch components.

tumors = details: tumor-bearing mice, reduction of about 0.3 pH units in the tumors; cited from earlier work
physchem = experiment: physchem
Procedure: In regard to initial testing, a simple pH titration of the prospective pH-switch structure in physiological saline is fast and easy and provides useful information about the key properties one is attempting to achieve.
Typically new structures that may be suitable as advanced pH-switch components are first assessed for their pS value. This entails preparing the sodium salt form of the structure and dissolving it at a concentration of 20 milliMolar in 15 ml of 0.15 Molar NaCl (deareated to remove CO2). […] A plot of pH versus volume of added HCl affords the pS value.
The sodium salts of compounds shown in FIG. 11a (designed to form internal acid-specific H-bond) and 11b (designed to form non-acid-specific H-bonds) were titrated in aqueous solution.

Row | pKa (physchem) | minimum of first derivative of the titration curve (pH) (physchem; titrated in water / aqueous solution) | SMILES | Percent in Acid Form at pH 6.4 [1] | Percent in Acid Form at pH 7.4 [1] | improvement in tumor growth delay (tumors)
1 | – | – | O=C(O)CCCc1ccc(N(CCCl)CCCl)cc1 [Chlorambucil] | 20.1% | 2.4% | 1.7 fold
2 | 5.5 | – | CCCCCCCC(=O)O [octanoic acid] | – | – | –
3 | – | – | CCC(=O)O [propionic acid] | 2.9% | 0.3% | –
4 | – | ~4.0 and ~5.6 | CCC[N+]1([O-])CCC(C(=O)O)CC1 (stereo not shown) [structure iii in FIG. 15b, N-oxide of N-propylisonipocotic acid] | – | – | –
